Several values for one entry are separate records, joined by “and”; a condition that tells them apart may be missing. Equal values may be shown once.
Key:
[1] = biological target: T1, Histidine--tRNA ligase (Leishmania infantum, UniProt A4I591); assay: Leishmania infantum Histidine tRNA synthetase (LdHisRS); format: functional
T1 sequence (A4I591 whole entry): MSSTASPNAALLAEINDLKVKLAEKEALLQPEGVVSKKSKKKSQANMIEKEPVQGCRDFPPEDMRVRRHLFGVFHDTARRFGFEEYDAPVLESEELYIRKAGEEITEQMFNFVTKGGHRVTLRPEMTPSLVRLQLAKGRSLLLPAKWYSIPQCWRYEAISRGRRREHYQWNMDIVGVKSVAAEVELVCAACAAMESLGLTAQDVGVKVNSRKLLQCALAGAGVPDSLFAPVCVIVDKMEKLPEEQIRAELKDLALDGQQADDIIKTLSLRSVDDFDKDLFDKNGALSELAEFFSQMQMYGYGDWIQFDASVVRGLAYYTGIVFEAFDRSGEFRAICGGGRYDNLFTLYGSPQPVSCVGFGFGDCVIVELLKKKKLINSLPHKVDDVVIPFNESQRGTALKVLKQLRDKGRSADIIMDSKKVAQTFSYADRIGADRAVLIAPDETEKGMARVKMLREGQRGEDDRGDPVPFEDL

[2] = biological target: T2, Coenzyme A biosynthesis bifunctional protein CoaBC (Mycobacterium tuberculosis (strain ATCC 25618 / H37Rv), UniProt P9WNZ1); assay: Biomol Green assay for MtCoaBC inhibitor, OD650 read; format: functional
T2 sequence (P9WNZ1 whole entry): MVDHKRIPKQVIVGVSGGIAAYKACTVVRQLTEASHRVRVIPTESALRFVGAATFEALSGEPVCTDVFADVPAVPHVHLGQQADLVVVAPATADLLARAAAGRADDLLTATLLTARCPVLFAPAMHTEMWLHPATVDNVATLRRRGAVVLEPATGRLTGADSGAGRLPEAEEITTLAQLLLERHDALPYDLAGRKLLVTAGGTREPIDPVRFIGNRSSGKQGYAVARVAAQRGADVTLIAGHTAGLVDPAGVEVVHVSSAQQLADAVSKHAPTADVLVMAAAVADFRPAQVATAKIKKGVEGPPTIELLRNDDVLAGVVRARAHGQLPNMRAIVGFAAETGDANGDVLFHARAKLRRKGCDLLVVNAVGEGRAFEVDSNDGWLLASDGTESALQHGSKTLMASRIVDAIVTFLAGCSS

[3] = biological target: T3, Histidine--tRNA ligase (Trypanosoma cruzi (strain CL Brener), UniProt Q4DA54); assay: Trypanosoma cruzi histidyl tRNA synthetase (Tc-HisRS); format: functional
T3 sequence (Q4DA54 whole entry): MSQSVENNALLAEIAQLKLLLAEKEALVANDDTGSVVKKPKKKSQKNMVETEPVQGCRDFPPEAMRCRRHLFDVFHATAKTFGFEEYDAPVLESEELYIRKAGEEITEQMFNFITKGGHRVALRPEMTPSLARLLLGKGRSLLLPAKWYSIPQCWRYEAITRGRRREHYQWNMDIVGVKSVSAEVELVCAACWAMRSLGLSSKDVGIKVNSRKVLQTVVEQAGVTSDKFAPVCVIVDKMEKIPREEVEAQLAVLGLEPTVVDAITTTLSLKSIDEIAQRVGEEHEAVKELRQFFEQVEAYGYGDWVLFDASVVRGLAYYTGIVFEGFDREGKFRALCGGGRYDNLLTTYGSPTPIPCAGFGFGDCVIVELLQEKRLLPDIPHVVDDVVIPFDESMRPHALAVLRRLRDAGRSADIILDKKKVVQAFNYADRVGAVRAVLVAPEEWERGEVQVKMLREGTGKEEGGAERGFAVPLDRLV

[4] = biological target: Lysine--tRNA ligase (Plasmodium falciparum (isolate 3D7), UniProt Q8IDJ8); assay: Pf-KRS-1 (Lysyl-RNA Synthetase-1, KRS-1, cytosolic KRS) from Plasmodium falciparum. Inhibitor assay, 384 well plate, luminescence read.; format: functional
[5] = biological target: ClpP1P2 (Mycobacterium tuberculosis (strain ATCC 25618 / H37Rv), UniProt P9WPC3+P9WPC5); assay: in vitro assay to detect presence of AMC directly proportional to the activity of ClpP1P2. GHDDI collaboration.; format: functional
[6] = system: Plasmodium falciparum; assay: Calibr Malaria Delayed Death Assay SOP; format: functional, organism-based; details: for IC50: Plasmodium falciparum
[7] = In vitro enzyme assay to detect hydrolysis of chlorophenol red-beta-D-[…] directly proportional to the number of Toxoplasma stably expressing beta-galactosidase; format: functional, organism-based, Toxoplasma gondii; details: Toxoplasma gondii
[8] = microbe, parasite or virus in culture; details: Mycobacterium tuberculosis, 72 h, read-out: pIC50 (converted)
[9] = microbe, parasite or virus in culture; details: Mycobacterium tuberculosis, 96 h, read-out: pIC50 (converted)
[10] = biological target: Polyketide synthase Pks13 (Mycobacterium tuberculosis (strain ATCC 25618 / H37Rv), UniProt I6X8D2); assay: Mycobacterium tuberculosis Polyketide synthase 13 Thioesterase (PKS13); format: functional
[11] = system: Mycobacterium tuberculosis; assay: Cornell M. t heat shock assay; format: functional, organism-based; details: Mycobacterium tuberculosis

Sequence of Lysine--tRNA ligase (Q8IDJ8 whole entry): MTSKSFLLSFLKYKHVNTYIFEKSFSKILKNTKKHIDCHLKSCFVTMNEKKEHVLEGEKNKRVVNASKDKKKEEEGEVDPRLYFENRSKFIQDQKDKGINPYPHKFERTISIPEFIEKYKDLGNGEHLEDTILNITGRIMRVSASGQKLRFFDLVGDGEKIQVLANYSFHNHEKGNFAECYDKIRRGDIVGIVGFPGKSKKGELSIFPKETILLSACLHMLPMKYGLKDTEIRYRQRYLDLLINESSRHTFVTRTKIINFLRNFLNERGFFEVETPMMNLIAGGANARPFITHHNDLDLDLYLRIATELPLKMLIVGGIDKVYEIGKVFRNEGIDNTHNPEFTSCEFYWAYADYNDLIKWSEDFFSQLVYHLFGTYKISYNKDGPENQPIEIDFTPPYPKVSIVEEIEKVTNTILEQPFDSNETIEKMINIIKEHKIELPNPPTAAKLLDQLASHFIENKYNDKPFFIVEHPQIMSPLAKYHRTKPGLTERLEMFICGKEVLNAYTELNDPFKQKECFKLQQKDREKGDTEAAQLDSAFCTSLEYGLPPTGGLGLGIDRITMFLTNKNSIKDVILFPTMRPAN
Sequence of ClpP1P2 (P9WPC5 whole entry): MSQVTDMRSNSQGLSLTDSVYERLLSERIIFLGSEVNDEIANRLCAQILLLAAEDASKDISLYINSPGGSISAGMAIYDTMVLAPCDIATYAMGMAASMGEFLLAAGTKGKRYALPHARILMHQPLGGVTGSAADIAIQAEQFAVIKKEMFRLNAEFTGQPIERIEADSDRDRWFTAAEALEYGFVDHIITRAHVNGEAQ
Sequence of ClpP1P2 (P9WPC3 whole entry): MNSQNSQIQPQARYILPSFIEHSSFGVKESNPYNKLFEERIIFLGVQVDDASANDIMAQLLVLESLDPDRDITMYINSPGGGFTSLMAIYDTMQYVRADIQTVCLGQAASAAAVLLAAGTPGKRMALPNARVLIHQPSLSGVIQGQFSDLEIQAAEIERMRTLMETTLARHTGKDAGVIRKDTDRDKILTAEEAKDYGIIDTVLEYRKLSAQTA
Sequence of Polyketide synthase Pks13 (I6X8D2 whole entry): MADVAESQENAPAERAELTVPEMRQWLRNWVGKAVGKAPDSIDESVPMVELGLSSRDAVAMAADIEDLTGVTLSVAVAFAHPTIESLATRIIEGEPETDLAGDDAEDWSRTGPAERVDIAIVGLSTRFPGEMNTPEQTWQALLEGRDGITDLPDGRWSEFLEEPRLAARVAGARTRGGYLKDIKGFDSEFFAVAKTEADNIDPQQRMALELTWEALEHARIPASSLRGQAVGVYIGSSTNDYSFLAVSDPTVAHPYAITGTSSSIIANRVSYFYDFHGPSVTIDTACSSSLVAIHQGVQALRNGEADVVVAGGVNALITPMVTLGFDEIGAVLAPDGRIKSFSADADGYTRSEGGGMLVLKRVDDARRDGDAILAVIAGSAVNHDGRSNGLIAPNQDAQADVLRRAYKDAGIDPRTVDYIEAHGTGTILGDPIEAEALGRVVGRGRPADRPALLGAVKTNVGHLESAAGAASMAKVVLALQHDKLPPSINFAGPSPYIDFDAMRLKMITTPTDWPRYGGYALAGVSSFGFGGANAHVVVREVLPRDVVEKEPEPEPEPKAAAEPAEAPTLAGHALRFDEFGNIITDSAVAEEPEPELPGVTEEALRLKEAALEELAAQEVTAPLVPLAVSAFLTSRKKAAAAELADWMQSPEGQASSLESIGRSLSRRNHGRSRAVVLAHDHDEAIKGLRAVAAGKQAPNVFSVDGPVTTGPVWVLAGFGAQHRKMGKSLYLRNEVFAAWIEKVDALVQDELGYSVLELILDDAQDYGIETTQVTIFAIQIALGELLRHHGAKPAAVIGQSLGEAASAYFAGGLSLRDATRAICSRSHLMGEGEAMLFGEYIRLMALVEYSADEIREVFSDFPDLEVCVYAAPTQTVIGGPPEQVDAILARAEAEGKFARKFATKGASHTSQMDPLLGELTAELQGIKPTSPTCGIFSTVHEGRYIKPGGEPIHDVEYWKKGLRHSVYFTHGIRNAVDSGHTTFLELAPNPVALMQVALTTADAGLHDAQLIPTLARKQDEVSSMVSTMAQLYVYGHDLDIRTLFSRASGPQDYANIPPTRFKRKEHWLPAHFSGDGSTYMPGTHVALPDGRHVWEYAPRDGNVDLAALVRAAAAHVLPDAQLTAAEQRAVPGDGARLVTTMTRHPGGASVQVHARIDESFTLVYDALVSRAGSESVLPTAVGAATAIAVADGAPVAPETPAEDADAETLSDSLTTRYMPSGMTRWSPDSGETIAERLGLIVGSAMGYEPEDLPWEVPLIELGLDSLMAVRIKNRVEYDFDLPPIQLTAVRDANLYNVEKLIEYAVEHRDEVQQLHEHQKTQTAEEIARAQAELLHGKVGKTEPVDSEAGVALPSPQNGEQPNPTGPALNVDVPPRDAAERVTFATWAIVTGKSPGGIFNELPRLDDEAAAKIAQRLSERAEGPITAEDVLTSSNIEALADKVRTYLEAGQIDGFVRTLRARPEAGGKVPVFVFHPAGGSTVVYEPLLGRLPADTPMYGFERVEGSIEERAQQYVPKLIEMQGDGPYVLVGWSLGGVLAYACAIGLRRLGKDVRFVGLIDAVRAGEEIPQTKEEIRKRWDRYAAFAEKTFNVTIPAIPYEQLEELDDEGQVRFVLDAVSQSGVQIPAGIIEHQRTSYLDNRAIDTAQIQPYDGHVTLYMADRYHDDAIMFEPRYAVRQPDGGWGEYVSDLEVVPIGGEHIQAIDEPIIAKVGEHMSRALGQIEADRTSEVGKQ

Row | Structure (SMILES) | IC50 [1] | IC50 [3] | IC50 [4] [µM] | other results
1 | CNc1cc(-c2ccccc2CN)c2cc[nH]c2n1 | 10.6 µM and 10.1 µM | 22.6 µM and 37.8 µM |  | IC50 [2]: > 30.2 µM
2 | Cn1cc(NC(=O)CCc2ccsc2)ccc1=O | 12.7 µM and 13.3 µM | 13.3 µM and 13.9 µM |  | 
3 | COc1cccn(CC(=O)N2CCC3(CCNCC3)C2)c1=O | 3.66 µM and 3.72 µM | 6.27 µM and 15.2 µM | > 50.1 | 
4 | Cc1cc(=O)n(C)cc1NC(=O)Cc1cc(F)ccc1F | 1.69 µM and 2.09 µM and 0.814 µM and 0.806 µM | 21.1 µM | > 50.1 | 
5 | COc1ccc(CNC(=O)Nc2ccc(=O)n(C)c2)cc1 | 1.74 µM and 2.25 µM and 1.76 µM and 2.08 µM | 5.8 µM and 5.68 µM | > 50.1 | 
6 | Cn1nc(Cn2ccnc2)c2c1CN(c1nccs1)C2 | 20.5 µM and 14.5 µM | 88.3 µM and 86.2 µM |  | 
7 | COc1cccn(CC(=O)N2CCCC3(CCCCC3)C2)c1=O | 8.99 µM and 8.08 µM | 4.24 µM and 4.44 µM |  | 
8 | CCCn1cc(NC(=O)c2ccc(S(=O)(=O)CC)cc2)ccc1=O | 1.47 µM and 1.05 µM and 2.81 µM and 2.06 µM | 2.37 µM and 2.75 µM | > 50.1 | 
9 | CNc1cc(-c2cccc(CN)c2)c2cc[nH]c2n1 | 25.1 µM and 23.5 µM | 27.7 µM and 26.3 µM |  | IC50 [5]: > 100 µM
10 | Cn1cc(NC(=O)NCc2ccoc2)ccc1=O | 3.44 µM and 3.04 µM | 7.29 µM and 8.84 µM | > 50.1 | 
11 | NCC1CCN(C2CCN(c3ccc(-c4ccco4)cc3)CC2)C1 (stereo not given) | 25.6 µM and 22.1 µM | 25.1 µM and 18.7 µM |  | pIC50 [6]: 6.504; IC50 [6]: 0.343 µM; IC50 [7]: 3.86 µM; IC50 [8]: 11.7 µM
12 | Cn1cc(NC(=O)NCc2ccsc2)ccc1=O | 2.07 µM and 2.41 µM and 2.32 µM and 2.42 µM | 4.72 µM and 5.06 µM | > 50.1 | 
13 | Cc1cc(=O)n(C)cc1NC(=O)Cc1cccc(F)c1 | 7.6 µM and 8.67 µM | 6.21 µM | > 50.1 | 
14 | CNC1CCN(C2CCN(c3ccc(-c4ccco4)cc3)CC2)CC1 |  | 65.7 µM and 43.8 µM |  | IC50 [8]: 24.6 µM; IC50 [9]: > 50.1 µM
15 | NCC1Cc2cc(-c3nccc(N4CCC(O)CC4)n3)cc(F)c2O1 (stereo not given) | 31.2 µM and 28.1 µM | 20.1 µM and 18.7 µM |  | IC50 [2]: > 30.2 µM; pIC50 [6]: 6.277; IC50 [6]: 0.569 µM
16 | c1ccc(N2CCOCC3(CCCN(c4nccs4)C3)C2)nc1 (stereo not given) |  | > 100 µM |  | IC50 [10]: > 100 µM
17 | COC(=O)c1ccc(CNC(=O)Nc2ccc(=O)n(C)c2)cc1 | 1.41 µM and 1.19 µM and 3.2 µM and 2.68 µM | 3.6 µM and 3.34 µM |  | 
18 | CCCn1cc(NC(=O)c2ccncc2)ccc1=O | 3.64 µM and 3.18 µM | 5.29 µM and 4 µM | > 50.1 | 
19 | CCCn1cc(NC(=O)c2ccc(NC(=O)NC3CC3)cc2)ccc1=O | 5.84 µM and 7.08 µM | 4.75 µM and 4.19 µM |  | 
20 | COc1ccc(C)cc1CN1CCC(c2cc3ncccc3cn2)CC1.Cl | 17.6 µM and 23.6 µM | 14.5 µM and 14.6 µM |  | pIC50 [6]: 6.624; IC50 [6]: 0.264 µM; IC50 [8]: 19.4 µM; IC50 [9]: 25.8 µM
21 | COc1cccn(CC(=O)N2CCCC3(CCOCC3)C2)c1=O | > 100 µM | 5.31 µM and 6.94 µM |  | 
22 | OCCNc1cc(-c2nccnc2N2CCCC2)c2cc[nH]c2n1 | 16.2 µM and 14.9 µM | 32.6 µM and 31 µM |  | 
23 | Cl.Fc1cccc(CN2CCC(c3cc4ncccc4cn3)CC2)c1F |  | 28.5 µM and 56.4 µM |  | pIC50 [6]: 6.161; IC50 [6]: 0.897 µM; IC50 [11]: 43.3 µM

From ChEMBL document CHEMBL3988442, “University of Dundee, Small-Polar-MMV Screening Library” (2021)
